In patent US20250114374A1, “BCL-2 INHIBITORS” (Newave Pharmaceutical Inc., priority 2021, published 2025) one finds IC50 data, which are given here for eleven compounds.

The first experiment relates to RS4; 11 with G101V mutation. In words: In vitro anti-proliferation assay (ATPlite luminescence) in BCL-2-dependent ALL cell line RS4;11 with G101V mutation. The experiment is classed as cell-based. As to conditions: Homo sapiens, RS4-11, 72 h; read-out: RS411-G101V IC50. As for the experimental part:
Cell antiproliferation was assayed by PerkinElmer ATPlite™ Luminescence Assay System. Briefly, the various test cancer cell lines were plated at a density of about 1×10^4 cells per well in Costar 96-well plates, and were incubated with different concentrations of compounds for about 72 hours in medium supplemented with 10% FBS. One lyophilized substrate solution vial was then reconstituted by adding 5 mL of substrate buffer solution, and was agitated gently until the solution was homogeneous. About 50 μL of mammalian cell lysis solution was added to 100 μL of cell suspension per well of a microplate, and the plate was shaken for about five minutes in an orbital shaker at ˜700 rpm. This procedure was used to lyse the cells and to stabilize the ATP. Next, 50 μL substrate solution was added to the wells and microplate was shaken for five minutes in an orbital shaker at ˜700 rpm. Finally, the luminescence was measured by a PerkinElmer TopCount® Microplate Scintillation Counter. Such assays, carried out with a range of doses of test compounds, allowed the determination of the cellular anti-antiproliferative IC50 of the compounds of the present invention.
The following table lists the IC50 values of another study for certain compounds of the invention.
In general terms: Cellular ATP, detected with luciferase, serves as a proxy for viable cell number.
A word on the IC50: it is the concentration at which inhibition is half-maximal. `CC(C)Oc1ccccc1[C@@H]1CN(Cc2cccnc2)CCN1C1CC2(CCN(c3ccc(C(=O)NS(=O)(=O)c4cc5c(c([N+](=O)[O-])c4)N[C@H](C4CCOCC4)CO5)c(N4c5cc6cc[nH]c6nc5O[C@H]5COCC[C@@H]54)c3)CC2)C1` [Example 253, 4-(2-((R)-2-(2-isopropoxyphenyl)-4-(pyridin-3-ylmethyl)piperazin-1-yl)-7-azaspiro[3.5]nonan-7-yl)-N-(((R)-5-nitro-3-(tetrahydro-2H-pyran-4-yl)-3,4-dihydro-2H-benzo[b][1,4]oxazin-7-yl)sulfonyl)-2-((5aS,9aR)-6,7,9,9a-tetrahydro-1H-pyrano[3,4-b]pyrrolo[3′,2′:5,6]pyrido[3,2-e][1,4]oxazin-5(5aH)-yl)benzamide]: the IC50 was determined as 0.0102 µM.

Take `CC(C)Oc1ccccc1[C@@H]1CN([C@H]2CCCOC2)CCN1C1CC2(CCN(c3ccc(C(=O)NS(=O)(=O)c4cc5c(c([N+](=O)[O-])c4)N[C@H](C4CCOCC4)CO5)c(N4c5cc6cc[nH]c6nc5O[C@H]5COCC[C@@H]54)c3)CC2)C1` [Example 175, 4-(2-((R)-2-(2-isopropoxyphenyl)-4-((S)-tetrahydro-2H-pyran-3-yl)piperazin-1-yl)-7-azaspiro[3.5]nonan-7-yl)-N-(((R)-5-nitro-3-(tetrahydro-2H-pyran-4-yl)-3,4-dihydro-2H-benzo[b][1,4]oxazin-7-yl)sulfonyl)-2-((5aS,9aR)-6,7,9,9a-tetrahydro-1H-pyrano[3,4-b]pyrrolo[3′,2′:5,6]pyrido[3,2-e][1,4]oxazin-5(5aH)-yl)benzamide]: the IC50 worked out at 0.0672 µM.

Consider `Cc1ccccc1[C@@H]1CN([C@@H]2CCOc3c(F)cc(F)cc32)CCN1C1CC2(CCN(c3ccc(C(=O)NS(=O)(=O)c4cc5c(c([N+](=O)[O-])c4)N[C@H](C4CCOCC4)CO5)c(N4c5cc6cc[nH]c6nc5O[C@H]5COCC[C@@H]54)c3)CC2)C1` [Example 198, 4-(2-((R)-4-((R)-6,8-difluorochroman-4-yl)-2-(o-tolyl)piperazin-1-yl)-7-azaspiro[3.5]nonan-7-yl)-N-(((R)-5-nitro-3-(tetrahydro-2H-pyran-4-yl)-3,4-dihydro-2H-benzo[b][1,4]oxazin-7-yl)sulfonyl)-2-((5aS,9aR)-6,7,9,9a-tetrahydro-1H-pyrano[3,4-b]pyrrolo[3′,2′:5,6]pyrido[3,2-e][1,4]oxazin-5(5aH)-yl)benzamide], for which the IC50 was found to be 0.145 µM.

Still in this experiment, the particulars now being: cellular anti-proliferative IC50, about 72 hours, medium with 10% FBS, ATPlite; read-out: RS411-G101V IC50.
As to `CC(C)Oc1ccccc1[C@@H]1CN(C2CCC(C)(O)CC2)CCN1C1CC2(CCN(c3ccc(C(=O)NS(=O)(=O)c4cc5c(c([N+](=O)[O-])c4)N[C@H](C4CCOCC4)CO5)c(N4c5cc6cc[nH]c6nc5O[C@H]5COCC[C@@H]54)c3)CC2)C1` (stereo partly drawn) [Example 207, 4-(2-((R)-4-((1r,4R)-4-hydroxy-4-methylcyclohexyl)-2-(2-isopropoxyphenyl)piperazin-1-yl)-7-azaspiro[3.5]nonan-7-yl)-N-(((R)-5-nitro-3-(tetrahydro-2H-pyran-4-yl)-3,4-dihydro-2H-benzo[b][1,4]oxazin-7-yl)sulfonyl)-2-((5aS,9aR)-6,7,9,9a-tetrahydro-1H-pyrano[3,4-b]pyrrolo[3′,2′:5,6]pyrido[3,2-e][1,4]oxazin-5(5aH)-yl)benzamide], the IC50 was 0.0269 µM.

In the case of `COc1nc(CN2CCN(C3CC4(CCN(c5ccc(C(=O)NS(=O)(=O)c6ccc(NCC7CCC(C)(O)CC7)c([N+](=O)[O-])c6)c(N6c7cc8cc[nH]c8nc7O[C@H]7COCC[C@@H]76)c5)CC4)C3)[C@@H](c3ccccc3OC(C)C)C2)ccc1C` (stereo partly drawn) [Example 106, 2-[(3R,8S)-2,5-dioxa-9,15,17-triazatetracyclo[8.7.0.0^{3,8}.0^{12,16}]heptadeca-1(10),11,13,16-tetraen-9-yl]-4-{2-[(2S)-2-(2-isopropoxyphenyl)-4-[(6-methoxy-5-methylpyridin-2-yl)methyl]piperazin-1-yl]-7-azaspiro[3.5]nonan-7-yl}-N-[3-nitro-4-({[(1r,4r)-4-hydroxy-4-methylcyclohexyl]methyl}amino)benzenesulfonyl]benzamide], the IC50 was determined as 0.0329 µM.

Regarding `CC(C)Oc1ccccc1[C@@H]1CN(Cc2ccc(F)c(F)c2)CCN1C1CC2(CCN(c3ccc(C(=O)NS(=O)(=O)c4cc5c(c([N+](=O)[O-])c4)N[C@H](C4CCOCC4)CO5)c(N4c5cc6cc[nH]c6nc5O[C@@H]5COCC[C@H]54)c3)CC2)C1` [Example 239, 4-{2-[(2R)-4-[(3,4-difluorophenyl)methyl]-2-(2-isopropoxyphenyl)piperazin-1-yl]-7-azaspiro[3.5]nonan-7-yl}-2-[(3S,8R)-2,5-dioxa-9,15,17-triazatetracyclo[8.7.0.0^{3,8}.0^{12,16}]heptadeca-1(10),11,13,16-tetraen-9-yl]-N-[(3R)-5-nitro-3-(oxan-4-yl)-3,4-dihydro-2H-1,4-benzoxazin-7-ylsulfonyl]benzamide], the concentration for half-maximal inhibition (IC50) is 0.0071 µM.

For the compound `COc1c(N2CCOC[C@@H]2C)ncc2c1COC[C@@H]2N1CCN(C2CC3(CCN(c4ccc(C(=O)NS(=O)(=O)c5cc6c(c([N+](=O)[O-])c5)N[C@H](C5CCOCC5)CO6)c(N5c6cc7cc[nH]c7nc6O[C@H]6COCC[C@@H]65)c4)CC3)C2)[C@H](c2ccccc2OC(C)C)C1` [Example 251, 2-[(3R,8S)-2,5-dioxa-9,15,17-triazatetracyclo[8.7.0.0^{3,8}.0^{12,16}]heptadeca-1(10),11,13,16-tetraen-9-yl]-4-{2-[(2R)-2-(2-isopropoxyphenyl)-4-[(4R)-8-methoxy-7-[(3S)-3-methylmorpholin-4-yl]-1H,3H,4H-pyrano[4,3-c]pyridin-4-yl]piperazin-1-yl]-7-azaspiro[3.5]nonan-7-yl}-N-[(3R)-5-nitro-3-(oxan-4-yl)-3,4-dihydro-2H-1,4-benzoxazin-7-ylsulfonyl]benzamide], the IC50 amounted to 0.0269 µM.

For `CC(C)Oc1ccccc1[C@@H]1CN([C@H](C)c2ccc(F)c(F)c2)CCN1C1CC2(CCN(c3ccc(C(=O)NS(=O)(=O)c4cc5c(c([N+](=O)[O-])c4)N[C@H](C4CCOCC4)CO5)c(N4c5cc6cc[nH]c6nc5O[C@H]5COCC[C@@H]54)c3)CC2)C1` [Example 242, 4-{2-[(2R)-4-[(1R)-1-(3,4-difluorophenyl)ethyl]-2-(2-isopropoxyphenyl)piperazin-1-yl]-7-azaspiro[3.5]nonan-7-yl}-2-[(3R,8S)-2,5-dioxa-9,15,17-triazatetracyclo[8.7.0.0^{3,8}.0^{12,16}]heptadeca-1(10),11,13,16-tetraen-9-yl]-N-[(3R)-5-nitro-3-(oxan-4-yl)-3,4-dihydro-2H-1,4-benzoxazin-7-ylsulfonyl]benzamide], the IC50 worked out at 0.0978 µM.

For the compound `CC(C)Oc1ccccc1[C@H]1CN(Cc2cnc3c(c2)OCCO3)CCN1C1CC2(CCN(c3ccc(C(=O)NS(=O)(=O)c4ccc(NCC5CCC(C)(O)CC5)c([N+](=O)[O-])c4)c(N4c5cc6cc[nH]c6nc5O[C@H]5COCC[C@@H]54)c3)CC2)C1` (stereo partly drawn) [Example 117, 2-[(3R,8S)-2,5-dioxa-9,15,17-triazatetracyclo[8.7.0.0^{3,8}.0^{12,16}]heptadeca-1(10),11,13,16-tetraen-9-yl]-4-{2-[(2S)-4-{2H,3H-[1,4]dioxino[2,3-b]pyridin-7-ylmethyl}-2-(2-isopropoxyphenyl)piperazin-1-yl]-7-azaspiro[3.5]nonan-7-yl}-N-[3-nitro-4-({[(1r,4r)-4-hydroxy-4-methylcyclohexyl]methyl}amino)benzenesulfonyl]benzamide], the half-maximal inhibitory concentration (IC50) amounted to 0.0132 µM.

Turning to `COc1cc(CN2CCN(C3CC4(CCN(c5ccc(C(=O)NS(=O)(=O)c6cc7c(c([N+](=O)[O-])c6)N[C@H](C6CCOCC6)CO7)c(N6c7cc8cc[nH]c8nc7O[C@H]7COCC[C@@H]76)c5)CC4)C3)[C@H](c3ccccc3C(C)C)C2)cnc1OC` [Example 173, 4-{2-[(2R)-4-[(5,6-dimethoxypyridin-3-yl)methyl]-2-(2-isopropylphenyl)piperazin-1-yl]-7-azaspiro[3.5]nonan-7-yl}-2-[(3R,8S)-2,5-dioxa-9,15,17-triazatetracyclo[8.7.0.0^{3,8}.0^{12,16}]heptadeca-1(10),11,13,16-tetraen-9-yl]-N-[(3R)-5-nitro-3-(oxan-4-yl)-3,4-dihydro-2H-1,4-benzoxazin-7-ylsulfonyl]benzamide], the IC50 stood at 0.001 µM.

For the compound `COc1cc(CN2CCN(C3CC4(CCN(c5ccc(C(=O)NS(=O)(=O)c6cc7c(c([N+](=O)[O-])c6)N[C@H](C6CCOCC6)CO7)c(N6c7cc8cc[nH]c8nc7O[C@H]7COCC[C@@H]76)c5)CC4)C3)[C@H](c3ccccc3C(C)C)C2)cnc1N1CCOC[C@@H]1C` [Example 172, 2-[(3R,8S)-2,5-dioxa-9,15,17-triazatetracyclo[8.7.0.0^{3,8}.0^{12,16}]heptadeca-1(10),11,13,16-tetraen-9-yl]-4-{2-[(2R)-2-(2-isopropylphenyl)-4-({5-methoxy-6-[(3S)-3-methylmorpholin-4-yl]pyridin-3-yl}methyl)piperazin-1-yl]-7-azaspiro[3.5]nonan-7-yl}-N-[(3R)-5-nitro-3-(oxan-4-yl)-3,4-dihydro-2H-1,4-benzoxazin-7-ylsulfonyl]benzamide], the 50% inhibitory concentration (IC50) came to 0.0014 µM.
